Experimental data taken from US20050153872A1, “Methods and compositions for the treatment of infection” (priority 2004, published 2005).
Where two headings read alike, the source gives them in different places.

Experiments:
[1] = test system: Candida albicans ATCC 10231; assay: In vitro cell growth inhibition assay (OD595, filaments)
[2] = test system: Acenetobactor (20); assay: In vitro antibacterial activity (MIC), clinical isolates; type: cell-based
Experimental: (§1) The following experiments were performed by Lab. of Pharmacology, National Sichuan antibiotic industril institute, Chengdu, Sichuan.
(§2) The following agents were used to test the in vitro activity of Ph-SA:
(§3) All the bacterial strains used in the experiments were clinical isolates collected from Sichuan and Beijing in 2002 and identified by West China Hospital, Sichuan University and Chongqing University of Medical Sciences with API system. The following strains were used in the experiments detailed below: Staphylococcus aureus 168 strains (MRSA 80 strains and MSSA 88 strains) Staphylococcus epidermidis 46 strains (MRSE 25 strains and MSSE 21 strains), Enterococcus 20 strains, and Acenetobactor 20 strains. Staphylococcus aureus ATCC25923, 29213 and BAA-42 were used as control strains. Bacterial strains were contacted with one of the above described compounds and MIC50, MIC90 and MICScope were determined.

[3] = test system: Enterococcus (20); assay: as above; type: cell-based; details: 20 Enterococcus clinical isolates
Experimental: as §1, §2, §3

[4] = test system: Staphylococcus epidermidis MSSE strain (21); assay: as above; type: cell-based; details: Staphylococcus epidermidis, 21 MSSE clinical isolates
Experimental: as §1, §2, §3

[5] = test system: Staphylococcus aureus MSSA strain (88); assay: as above; type: cell-based; details: Staphylococcus aureus, MSSA
Experimental: as §1, §2, §3

[6] = test system: Staphylococcus aureus MRSA strain (80); assay: as above; type: cell-based
Experimental: as §1, §2, §3

[7] = test system: Staphylococcus epidermidis MRSE strain (25); assay: as above; type: cell-based
Experimental: as §1, §2, §3

[8] = test system: Staphylococcus aureus MRSA BAA-42; assay: microbe, parasite or virus in culture; type: cell-based
[9] = test system: Staphylococcus aureus MRSA 02-18; assay: microbe, parasite or virus in culture; type: cell-based; details: Staphylococcus aureus, MRSA
[10] = test system: Enterococcus faecalis ATCC 700802; assay: microbe, parasite or virus in culture; type: cell-based; details: Enterococcus faecalis, ATCC700802
[11] = test system: Staphylococcus aureus ATCC 29213; assay: MIC against challenge strain (Table 3); type: cell-based
[12] = test system: Staphylococcus aureus ATCC 29213; assay: In vivo protection of infected mice; design: species or system Kungming mice; details: i.p. infection 3.6 × 10^5 cfu/ml
Experimental: (§4) The following experiments were performed by Pharmacology Lab, National Sichuan antibiotic industril institute, Chengdu, Sichuan.
(§5) The agents described above were diluted with sterilized water to final concentrations of 10 mg/L, 5 mg/Land 2.5 mg/L. […]
(§6) 170 mice (Kungming mice: 18˜22 g, 85 males and 85 females) were randomly divided into four groups and injected with a fatal dosage of staphylococci, enterococcus and E. coli intraperitoneally. […] Mice were inspected every 24 hours for 7-14 days. Dead mice were counted as positive results. The results are depicted in Table 3 and FIGS. 4 and 5A-B.

[13] = test system: Escherichia coli 02-1-65; assay: In vivo protection of infected mice; design: species or system Kungming mice; details: i.p. infection 3.3 × 10^5 cfu/ml
Experimental: as §4, §5, §6

[14] = test system: Enterococcus faecalis ATCC 700802; assay: In vivo protection of infected mice; design: species or system Kungming mice
Experimental: as §4
(§7) The agents described above were diluted with sterilized water to final concentrations of 10 mg/L, 5 mg/Land 2.5 mg/L.
(§8) Staphylococcus aureus ATCC BAA-42(MRSA) and enterococcus faecalis ATCC 700802 were used as control strains.
as §6

[15] = test system: Staphylococcus aureus MRSA 02-18; assay: In vivo protection of infected mice; design: species or system Kungming mice
Experimental: as §4, §7, §8, §6

[16] = test system: Staphylococcus aureus MRSA BAA-42; assay: In vivo protection of infected mice; design: species or system Kungming mice
Experimental: as §4, §7, §8, §6

[17] = test system: Escherichia coli 02-1-65; assay: MIC against challenge strain (Table 3); type: cell-based; details: 02165, read-out: MIC
[18] = Staphylococcus epidermidis, MRSE
[19] = 1st Time, i.v. treatment after one hour
[20] = 2nd Time (value in parentheses), i.v. treatment

`CC1(C)S[C@@H]2[C@H](NC(=O)[C@H](N)c3ccccc3)C(=O)N2[C@H]1C(=O)O` [Ampicillin, sodium ampicillin] was tested, and the “effect on growth of Candida albicans” value ([1]; Ph-CA 5 μg/ml, Ph-SA 5 μg/ml, ampicillin 50 μg/ml, amphotericin B 200 ng/ml, fluconazole 3 μg/ml) was “no effect on the growth”, the MIC50 [2] was over 128 µg/mL and the MIC90 [2] was over 128 µg/mL. The MIC [3] was 0.25 to 16 µg/mL, the MIC50 ([3]; read-out: MIC50) was 0.5 µg/mL and the MIC90 ([3]; read-out: MIC90) was 16 µg/mL. It also gave an MIC [4] of 0.015 to 0.25 µg/mL, an MIC50 ([4]; read-out: MIC50) of 0.03 µg/mL and an MIC90 ([4]; read-out: MIC90) of 0.25 µg/mL. For the same molecule, the MIC50 [5] was 0.25 µg/mL, the MIC90 [5] was 1 µg/mL and the MIC ([5]; read-out: MIC Scope) was 0.015 to 0.25 µg/mL. The “MIC Scope” value ([6]; 80 MRSA clinical isolates) was 0.06˜64 mg/l, the MIC50 ([6]; Staphylococcus aureus, MRSA) was 16 µg/mL and the MIC90 ([6]; Staphylococcus aureus, MRSA) was 32 µg/mL. The “MIC Scope” value ([7]; 25 MRSE clinical isolates) was 0.06˜64 mg/l, the MIC50 [7, 18] was 16 µg/mL and the MIC90 [7, 18] was 64 µg/mL. The MIC ([8]; Staphylococcus aureus) was 0.25 µg/mL, the MIC [9] was 8 µg/mL and the MIC [10] was 0.125 µg/mL. For the same molecule, the MIC ([11]; ATCC29213, read-out: MIC) was under 0.015 µg/mL, the ED50 ([12]; Staphylococcus aureus, ATCC29213, 2nd Time (value in parentheses), i.v. treatment, read-out: ED50) was 12.3 mg/kg and the ED50 ([12]; Staphylococcus aureus, ATCC29213, 1 h, 1st Time, i.v. treatment after one hour, read-out: ED50) was 14.2 mg/kg. The ED50 ([13]; Escherichia coli, 02165, 2nd Time (value in parentheses), i.v. treatment, read-out: ED50) was over 30.8 mg/kg, the ED50 ([13]; Escherichia coli, 02165, 1 h, 1st Time, i.v. treatment after one hour, read-out: ED50) was over 30.8 mg/kg and the ED50 ([14]; Enterococcus faecalis, ATCC700802) was 3 mg/kg. The ED50 ([14]; Enterococcus faecalis, ATCC700802, 1 h) was 3.37 mg/kg, the ED50 ([15]; Staphylococcus aureus, MRSA) was over 20 mg/kg and the ED50 ([15]; Staphylococcus aureus, MRSA, 1 h) was 32.7 mg/kg. The ED50 ([16]; Staphylococcus aureus) was 23.4 mg/kg, the ED50 ([16]; Staphylococcus aureus, 1 h) was 25.2 mg/kg and the MIC [17] was over 128 µg/mL.

Molecule `Cc1nnc(SCC2=C(C(=O)[O-])N3C(=O)[C@@H](NC(=O)Cn4cnnn4)[C@H]3SC2)s1.[Na+]` [Cephazoid, sodium Cephazoid] has an MIC ([8]; Staphylococcus aureus MRSA BAA-42) of 0.5 µg/mL, an MIC [11] of 0.03 µg/mL and an ED50 [12, 19] of 29.03 mg/kg. For the same molecule, the ED50 [12, 20] was “(11.20) mg/kg”, the ED50 [13, 19] was over 30.77 mg/kg and the ED50 [13, 20] was “(>30.77) mg/kg”. The ED50 ([14]; 1st Time, mice, i.p. infection 8.0 × 10^6 cfu/ml, i.v. treatment after one hour) was over 10 mg/kg, the ED50 ([14]; 2nd Time (value in parentheses), mice, i.p. infection 8.0 × 10^6 cfu/ml, i.v. treatment) was “(12.91) mg/kg” and the ED50 ([15]; 1st Time, mice, i.p. infection 1.7 × 10^5 cfu/ml, i.v. treatment after one hour) was 11.82 mg/kg. The ED50 ([15]; 2nd Time (value in parentheses), mice, i.p. infection 1.7 × 10^5 cfu/ml, i.v. treatment) was “(>10) mg/kg”, the ED50 ([16]; 1st Time, mice, i.p. infection 5.5 × 10^5 cfu/ml, i.v. treatment after one hour) was 9.04 mg/kg and the ED50 ([16]; 2nd Time (value in parentheses), mice, i.p. infection 5.5 × 10^5 cfu/ml, i.v. treatment) was “(8.78) mg/kg”.

B1: Rev. Ph-CA: Candida albicans alpha mating pheromone at N-terminus (S1) of colicin Ia (protein)
chain: GFRLTNFGYFEPGMSDPVARGITNPGAESLGYDSDGHEIMAVASPIYVASNPPRVASPVFHGTPPAWSSFGNKTIWGGNEWVASPDSPTRSDIEKRDKEITAYKNTLSAQQKENENKRTEAGKRLSAAIAAREKDENTLKTLRAGNADAADITRQEFRLLQAELREYGFRTEIAGYDALRLHTESRMLFADADSLRISPREARSLIEQAEKRQKDAQNADKKAADMLAEYERRKGILDTRLSELEKNGGAALAVLDAQQARLLGQQTRNDRAISEARNKLSSVTESLNTARNALTRAEQQLTQQKNTPDGKTIVSPEKFPGRSSTNHSIVVSGDPRFAGTIKITTSAVIDNRANLNYLLSHSGLDYKRNILNDRNPVVTEDVEGDKKIYNAEVALAEWDKLRQRLLDARNKITSAESAVASNSARNNLSARTNEQKHANDALNALLKEKENIRNQLSGINQKIAEEKRKQDELKATKDAINFTTEFLKSVSEKYGAKAEQLAREMAGQAKGKKIRNVEEALKTYEKYRADINKKINAKDRAAIAAALESVKLSDISSNLNRFSRGLGYAGKFTSLADWITEFGKAVARGTENWRPLFVKTETIIAGNAATALVALALVFSILTGSALGIIGYGLLMAVTGALIDESLVEKANKFWGI
modifications: Candida albicans alpha mating pheromone attached to colicin
With B1 the “inhibition effect as compared to PMC-CA” value ([1]; 20 μg/ml) was “about 30%” and the “antifungal effect against Candida albicans in vitro and in vivo” value ([1]; general statement) was “no effect”.
